Measured values reported in the supplement of paper PMC10307832.

Key:
Experiment in all cases: relative viability (nuclei count vs DMSO), 5 days (fraction); higher = more cells survive
Ponatinib + Dasatinib = compound: Cc1ccc(C(=O)Nc2ccc(CN3CCN(C)CC3)c(C(F)(F)F)c2)cc1C#Cc1cnc2cccnn12 [Ponatinib] + Cc1nc(Nc2ncc(C(=O)Nc3c(C)cccc3Cl)s2)cc(N2CCN(CCO)CC2)n1 [Dasatinib] (partner 0.075 µM)
Outline: (§1)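 Nuclei were stained with Hoechst during a one-step fixation (final 0.05% Triton X-100, 1% formaldehyde, 1 ug/ml Hoechst) carried out 5 days after dosing, then counted on 4× images. The cells, lung cancer lines in 1536-well plates, had been dosed by pin tool the day after seeding with one drug alone or a fixed anchor-drug dose plus five library-drug doses (not always all listed) in √10 steps. Relative viability is the nuclei count in treated wells divided by that in vehicle wells, and each value is the median of duplicate plates.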

Pazopanib + Trametinib = compound: Cc1ccc(Nc2nccc(N(C)c3ccc4c(C)n(C)nc4c3)n2)cc1S(N)(=O)=O [Pazopanib] + CC(=O)Nc1cccc(-n2c(=O)n(C3CC3)c(=O)c3c(Nc4ccc(I)cc4F)n(C)c(=O)c(C)c32)c1 [Trametinib] (partner 0.02 µM)
Outline: as §1

Pazopanib + Foretinib = compound: Cc1ccc(Nc2nccc(N(C)c3ccc4c(C)n(C)nc4c3)n2)cc1S(N)(=O)=O [Pazopanib] + COc1cc2c(Oc3ccc(NC(=O)C4(C(=O)Nc5ccc(F)cc5)CC4)cc3F)ccnc2cc1OCCCN1CCOCC1 [Foretinib] (partner 0.25 µM)
Outline: as §1

Pazopanib + Pictilisib = compound: Cc1ccc(Nc2nccc(N(C)c3ccc4c(C)n(C)nc4c3)n2)cc1S(N)(=O)=O [Pazopanib] + CS(=O)(=O)N1CCN(Cc2cc3nc(-c4cccc5[nH]ncc45)nc(N4CCOCC4)c3s2)CC1 [Pictilisib] (partner 1 µM)
Outline: as §1

Cell Line | relative viability (Ponatinib + Dasatinib; first compound 0.002 µM) | relative viability (Ponatinib + Dasatinib; first compound 0.006325 µM) | relative viability (Ponatinib + Dasatinib; first compound 0.06325 µM) | relative viability (Ponatinib + Dasatinib; first compound 0.2 µM) | relative viability (Pazopanib + Trametinib; first compound 0.01 µM) | relative viability (Pazopanib + Trametinib; first compound 0.03162 µM) | relative viability (Pazopanib + Trametinib; first compound 0.1 µM) | relative viability (Pazopanib + Trametinib; first compound 0.3162 µM) | relative viability (Pazopanib + Trametinib; first compound 1 µM) | relative viability (Pazopanib + Foretinib; first compound 0.01 µM) | relative viability (Pazopanib + Foretinib; first compound 0.03162 µM) | relative viability (Pazopanib + Foretinib; first compound 0.1 µM) | relative viability (Pazopanib + Foretinib; first compound 0.3162 µM) | relative viability (Pazopanib + Foretinib; first compound 1 µM) | relative viability (Pazopanib + Pictilisib; first compound 0.01 µM) | relative viability (Pazopanib + Pictilisib; first compound 0.03162 µM) | relative viability (Pazopanib + Pictilisib; first compound 0.3162 µM) | relative viability (Pazopanib + Pictilisib; first compound 1 µM) | relative viability (Pazopanib + Pictilisib; first compound 0.1 µM)
HOP-62 | 0.6 | 0.607 | 0.819 | 0.6 | 0.378 | 0.371 | 0.421 | 0.427 | 0.5 | 1.05 | 1.04 | 1.2 | 1.08 | 0.976 | 0.479 | 0.768 | 0.874 | 0.874 | –
CAL-12T | 0.48 | 0.37 | 0.365 | 0.219 | 0.32 | 0.437 | 0.331 | 0.437 | 0.446 | 1.03 | 1.06 | 1.17 | 1.05 | 0.97 | 0.335 | 0.461 | 0.401 | 0.423 | 0.527
NCI-H596 | 0.505 | 0.61 | 0.479 | 0.373 | 0.798 | 1.02 | 0.808 | 0.814 | 0.915 | – | 0.723 | 0.9 | 0.815 | 0.84 | 0.383 | 0.379 | 0.381 | 0.39 | 0.417
NCI-H1755 | 0.453 | 0.388 | 0.362 | 0.385 | 0.685 | 0.748 | 0.799 | 0.723 | 0.767 | 0.79 | 0.868 | 0.896 | 0.872 | 0.874 | 0.368 | 0.432 | 0.458 | 0.446 | 0.386
NCI-H2023 | 0.494 | 0.522 | 0.807 | 0.409 | 0.555 | 0.619 | 0.615 | 0.574 | 0.491 | – | 0.886 | 0.77 | 0.849 | 0.893 | 0.173 | 0.202 | 0.25 | 0.277 | 0.278
NCI-H2009 | 0.259 | 0.292 | 0.297 | 0.295 | 0.277 | 0.25 | 0.175 | 0.315 | 0.332 | 1.2 | 1.16 | 1.19 | 1.15 | 1.06 | 0.748 | 0.803 | 0.859 | 0.947 | 0.786
